Four molecules from US4025528A, “Thiazole derivatives of benzoic and phenylalkanoic acids” (Shionogi & Co., Ltd., priority 1973, dated 1977) can be followed below.

In data set [1] the test system is Wistar rats. In words: Anti-edema Activity (carrageenin foot edema). It is filed as in vivo, Wistar rat. The settings on record: Rattus norvegicus, read-out: Anti-edema ED (30%). The protocol:
An aqueous solution of 1% carrageenin (0.05 ml) is used as phlogistic agent. After 30 minutes Wistar rats (180-200 g, female) are orally administered test compounds, the phalogistic agent is injected subcutaneously into the plantar parts of the foot of rats. The volume of swelling is measured 3 hours after carrageenin, and the anti-edema activity is determined by calculating the ratio of the edematous volume of medicated foot to that of non-medicated foot. […]
(In general: In the carrageenan paw model, swelling and tenderness develop within hours.)

A further data set relates to DS mice. Description: Acetic Acid Writhing Method. The settings on record: Mus musculus, read-out: Acetic Acid Writhing ED (50%). It is filed as in vivo. On the procedure:
6. Acetic Acid Writhing Method
DS mice (20-23 g, male) are treated with an intraperitoneal injection of 0.1 ml/10 g of 0.6% acetic acid 60 minutes after oral administration of a test drug. The number of times of writhing for 10 minutes is counted. The ED50 is calculated by the Bliss' method.
On the technique in general: In writhing tests, fewer writhes than in controls are read as antinociception.

Data set [2] is described as follows: in vivo. The settings on record: mouse, po.
For data set [3], the system named is Wistar rat. In words: Effect on Yeast-inflamed Foot. It is filed as in vivo. The settings on record: 2 h, oral, pain threshold two hours later, ED 100%. The protocol:
8. Effect on Yeast-inflamed Foot
A test compound is orally given Wistar rat (180-200 g, female) immediately before subcutaneous injection of 0.1 ml of 20% yeast suspension into the plantar tissue of the foot. Two hours later, the pain threshold is measured by comprissing the foot with a plunger and calculated by the method of Litchfield and Wilcoxon.

For another data set, the system named is Wister rat. In words: Anti-pyretic Activity (yeast). It is filed as in vivo. The settings on record: read-out: Anti-pyretic Activity, dose by which body temperature is reduced 0.5° C. The protocol:
11. Anti-pyretic Activity
A test compound is orally administered to Wister rat (180-200 g, female) 16 hours after an injection of 2 ml of 15% suspension of yeast into the subcutaneous tissue of the hip of the rat. The rectal temperature is measured every 1 hour for 5 hours. The effective dose is calculated by the Bliss' method.

The subject of data set [4] is Wistar rat. In words: Effect of Scald-inflamed Foot. It is filed as in vivo. The settings on record: 1.5 h, read-out: Scald-inflamed Foot ED (100%). On the procedure: 7. Effect of Scald-inflamed Foot
A test drug is administered orally 90 minutes after scalding and the analgesic activity is evaluated by compressing the foot with a plunger.

For data set [5], the system named is Wistar rats. Description: Anti-abscess Activity (carrageenin). The format is in vivo, Wistar rat. The settings on record: Rattus norvegicus, read-out: Anti-abscess ED (25%). The protocol: Carrageenin (2% aqueous solution, 0.5 ml) is subcutaneously injected into the back of Wistar rats (180-200 g, female) and at the same time one-half dose of a test compound is orally given, the other half given 3 hours later. The animals are sacrificed 24 hours after carrageenin and the abscess formed is isolated and weighed. The ED25 is calculated by the Bliss' method.

Data set [6] has as its system Wistar rat. In words: Anti-granuloma Activity (carrageenin filterpaper). It is filed as in vivo. The settings on record: 168 h. The protocol: 3. Anti-granuloma Activity
Two circular pieces of filterpaper about 6 mm in diameter, soaking 90 mg of 5% carrageenin solution, are implanted subcutaneously in the abdominal skin of Wistar rat (180-200 g, female). A test drug is orally given once a day for 6 consecutive days. On the 7th day the animals are killed and the amount of granulation tissue deposited, the adrenals and the thymus are weighed. The ED25 is calculated by the Bliss' method.

Data set [7] in a line: in vivo. The settings on record: rat, po.
Data set [8] relates to Wistar rat. Description: Foot-licking Method (formaldehyde). The format is in vivo. On the procedure:
Thirty minutes after oral administration of a test drug in Wistar rat (180-200 g, female), the effect of the compound on foot-licking syndrome due to irritation by a subcutaneous injection of 0.05 ml of 3.75% formaldehyde into the plantar tissue of the hind-paw is observed for 50 minutes. The ED50 is calculated by the method of Litchfield and Wilcoxon.

The next data set deals with guinea-pig. Description: Anti-erythema Activity (ultraviolet light). It is filed as in vivo. On the procedure:
4. Anti-erythema Activity
The hair on the back of guinea-pig (300-400 g, male and female) is removed on the day before experiment. Thirty minutes after oral administration of a test drug, 3 circular areas (8 mm in diameter each) on the back of the animal are exposed to ultraviolet light for 60 seconds. Anti-erythema activity is evaluated at 2 hours after irradiation. The ED50 is calculated by Up and Down method of Brownlee et al. [J. Am. Stat. Assoc.

Data set [9] concerns Wistar rat. Description: Effect on Adjuvant Arthritis. It is filed as in vivo. The settings on record: 120 h. The protocol: 5. Effect on Adjuvant Arthritis
A test compound is orally administered to the arthritic rat twice a day for 5 consecutive days. Five hours after the final medication the change in swelling volume of the arthritic foot is measured. The ED30 is calculated by the Bliss' method.

Where [10] appears, read: oral, swelling 3 hours after carrageenin, ED 30%.
Where [11] appears, read: oral, 60 minutes before 0.6% acetic acid i.p., ED50.
Where [12] appears, read: oral, 16 hours after yeast injection.
Where [13] appears, read: oral, 90 minutes after scalding, pain threshold, ED 100%.
[14] abbreviates: oral, two half doses, 24 hours after carrageenin, ED25.
The mark [15] stands for this setting: oral once a day for 6 days, ED25, read-out: Anti-granuloma ED (25%).
[16] abbreviates: oral, thirty minutes before formaldehyde, ED50, read-out: Footlicking ED (50%).
Where [17] appears, read: Cavia porcellus, light or radiation study, po, 2 h; read-out: Anti-erythema ED (50%).
Setting [18] is: oral twice a day for 5 days, ED30, read-out: Arthritis ED (30%).

Read-outs that look alike come from different tables or passages of the source.

Take `CC(=O)Oc1ccccc1C(=O)O` [Acetylsalicylic Acid, acetylsalicylic acid]: the ED30 in the data set on Wistar rats [1] (po, 3 h) was determined as 48 mg/kg; in the data set on Wistar rat [9] (po, read-out: Arthritis ED (30%)), 100 mg/kg. In addition, the ED50 was found to be 180 mg/kg in the data set with DS mice (po); 580 mg/kg with Wistar rat [8] (po, read-out: Footlicking ED (50%)); 79 mg/kg in the data set on guinea-pig (Cavia porcellus, light or radiation study, po, 2 h, read-out: Anti-erythema ED (50%)). Further, the median lethal dose (LD50) (commonly the dose at which mortality reaches 50%) at 72 h in “in vivo [2]” stood at 2000 mg/kg; in the data set “in vivo [7]”, 2400 mg/kg. Moreover, the ED100 in the data set on Wistar rat [3] was found to be 250 mg/kg; in the data set on Wistar rat [4] (po) it was 260 mg/kg. For the same molecule, in the data set with Wister rat (po, 16 h), the ED (0.5 degC reduction) amounted to 14 mg/kg. Also, the ED25 is 175 mg/kg in the data set with Wistar rats [5] (po, 24 h) and greater than 500 mg/kg in the data set on Wistar rat [6] (po, read-out: Anti-granuloma ED (25%)).

Turning to `Cc1nc(Oc2ccccc2)sc1C(C)C(=O)O` (centres unmarked) [Example 48-140, calcium 2-(2-phenoxy-4-methyl-5-thiazolyl)propionate], the values for the ED30 in the data set with Wistar rats [1] (setting [10]) and with Wistar rat [9] (setting [18]) were 14 mg/kg and 20 mg/kg, respectively. For the same molecule, the ED50 in the data set with DS mice (setting [11]) came to 180 mg/kg; with Wistar rat [8] (setting [16]) it was 130 mg/kg; in the data set with guinea-pig (setting [17]), 27 mg/kg. Moreover, the LD50 at 72 h in “in vivo [2]” amounted to 1190 mg/kg; in the data set “in vivo [7]”, 1200 mg/kg. Moreover, the ED100 in the data set on Wistar rat [3] was 110 mg/kg; in the data set on Wistar rat [4] (setting [13]) it was greater than 500 mg/kg. Besides, the ED (0.5 degC reduction) in the data set on Wister rat (setting [12]) came to 23 mg/kg. For the same molecule, the ED25 is 60 mg/kg in the data set on Wistar rats [5] (setting [14]) and 230 mg/kg in the data set with Wistar rat [6] (setting [15]).

As for `CC(C(=O)O)c1ccc(Oc2nccs2)cc1` (centres unmarked) [Example 48-156, 2-[4-(2-thiazolyloxy)phenyl]propionic acid], the figures for the ED30 with Wistar rats [1] (setting [10]) and in the data set on Wistar rat [9] (setting [18]) were 3.8 mg/kg and 4.2 mg/kg, respectively. The ED50 in the data set on DS mice (setting [11]) is 20 mg/kg; with Wistar rat [8] (setting [16]), 175 mg/kg; in the data set with guinea-pig (setting [17]) it was 20 mg/kg. Besides, the figures for the ED100 with Wistar rat [3] and in the data set with Wistar rat [4] (setting [13]) were 28 mg/kg and 77 mg/kg, respectively. The ED (0.5 degC reduction) in the data set with Wister rat (setting [12]) is 4 mg/kg. In addition, the figures for the ED25 in the data set on Wistar rats [5] (setting [14]) and with Wistar rat [6] (setting [15]) were 6.4 mg/kg and 13 mg/kg, respectively.

In the case of `CCCCC1C(=O)N(c2ccccc2)N(c2ccccc2)C1=O` [Phenylbutazone, phenylbutazone], the ED30 in the data set on Wistar rats [1] (setting [10]) amounted to 48 mg/kg; in the data set with Wistar rat [9] (setting [18]), 7.8 mg/kg. In addition, the values for the ED50 with DS mice (setting [11]), in the data set with Wistar rat [8] (setting [16]) and in the data set on guinea-pig (setting [17]) were 440 mg/kg, 150 mg/kg and 26 mg/kg, respectively. Moreover, the ED100 was 130 mg/kg in the data set with Wistar rat [3] and 240 mg/kg in the data set on Wistar rat [4] (setting [13]). Besides, in the data set on Wister rat (setting [12]), the ED (0.5 degC reduction) worked out at 3.8 mg/kg. The ED25 in the data set with Wistar rats [5] (setting [14]) amounted to 33 mg/kg; with Wistar rat [6] (setting [15]) it was 24 mg/kg.
